“And” between values parts separate entries of the source, which are not always exact repeats. Equal entries are not always repeated.
What was measured:
Conditions in all cases: incubation time: 72 h
MDA-MB-453 [1] = assay: normalised viability (% of control), CellTiter-Blue; higher = more viable cells (about 100 = DMSO control)
Procedure, shortened: (§1)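 Each value is normalised viability at a single listed concentration of the series. Breast cancer cell lines in 384-well plates were incubated 72 h with compound and read by CellTiter-Blue fluorescence at 560/590 nm, with vehicle set to 100 and a positive kill control to 0 on every plate.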

HCC1599 [2] = assay: as above
Procedure, shortened: as §1

CAL-148 = assay: drug sensitivity score (DSS), CellTiter-Blue viability (DSS (AUC-based score)); higher = stronger viability inhibition; extreme values may be limits of the assay
Description: (§2)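 DSRT with the CellTiter-Blue (resazurin reduction) viability readout, fluorescence 560/590 nm, 72 h incubation. Plates were normalised to DMSO and benzethonium chloride controls. DSS is computed from the area under the fitted dose-response curve (5 or 9 concentrations).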

MDA-MB-231 = assay: as above
Description: as §2

BT-549 = assay: as above
Description: as §2

MDA-MB-436 = assay: as above
Description: as §2

CAL-85-1 = assay: as above
Description: as §2

HCC1937 = assay: as above
Description: as §2

MDA-MB-468 = assay: as above
Description: as §2

HCC1143 = assay: as above
Description: as §2

MFM-223 = assay: as above
Description: as §2

CAL-51 = assay: as above
Description: as §2

SK-BR-3 = assay: as above
Description: as §2

HDQ-P1 = assay: as above
Description: as §2

BT-474 = assay: as above
Description: as §2

DU-4475 = assay: as above
Description: as §2

Hs578T = assay: as above
Description: as §2

CAL-120 = assay: as above
Description: as §2

MDA-MB-453 [3] = assay: as above
Description: as §2

HCC1599 [4] = assay: as above
Description: as §2

SMILES	normalised viability (MDA-MB-453 [1]; 3 nM)	normalised viability (MDA-MB-453 [1]; 30 nM)	normalised viability (MDA-MB-453 [1]; 100 nM)	normalised viability (HCC1599 [2]; 10 nM)	normalised viability (HCC1599 [2]; 1000 nM)	normalised viability (HCC1599 [2]; 10000 nM)	drug sensitivity score (CAL-148)	drug sensitivity score (MDA-MB-231)	drug sensitivity score (BT-549)	drug sensitivity score (MDA-MB-436)	drug sensitivity score (CAL-85-1)	drug sensitivity score (HCC1937)	drug sensitivity score (MDA-MB-468)	drug sensitivity score (HCC1143)	drug sensitivity score (MFM-223)	drug sensitivity score (CAL-51)	drug sensitivity score (SK-BR-3)	drug sensitivity score (HDQ-P1)	drug sensitivity score (BT-474)	drug sensitivity score (DU-4475)	drug sensitivity score (Hs578T)	drug sensitivity score (CAL-120)	drug sensitivity score (MDA-MB-453 [3])	drug sensitivity score (HCC1599 [4])	normalised viability (MDA-MB-453 [1]; 0.3 nM) [%]	normalised viability (MDA-MB-453 [1]; 10 nM) [%]	normalised viability (HCC1599 [2]; 1 nM) [%]	normalised viability (HCC1599 [2]; 100 nM) [%]	normalised viability (MDA-MB-453 [1]; 0.297 nM) [%]	normalised viability (MDA-MB-453 [1]; 2.97 nM) [%]	normalised viability (MDA-MB-453 [1]; 9.9 nM) [%]	normalised viability (HCC1599 [2]; 0.99 nM) [%]	normalised viability (HCC1599 [2]; 99 nM) [%]	normalised viability (HCC1599 [2]; 990 nM) [%]
Cc1c(N)nc([C@H](CC(N)=O)NC[C@H](N)C(N)=O)nc1C(=O)N[C@H](C(=O)N[C@H](C)[C@@H](O)[C@H](C)C(=O)N[C@H](C(=O)NCCc1nc(-c2nc(C(=O)NCCC[S+](C)C)cs2)cs1)[C@@H](C)O)[C@@H](OC1OC(CO)C(O)C(O)C1OC1OC(CO)C(O)C(OC(N)=O)C1O)c1cnc[nH]1 (some centres undefined) [Bleomycin]	103%	106%	100%	134%	112%	118%	0	6.41	13.6	4.58	0	9.75	0	9.95	0	0.892	0	0	0	0	11.3	3.15	0	0	–	–	–	–	–	–	–	–	–	–
C[C@]12C=CC(=O)C=C1CC[C@@H]1[C@@H]2C(=O)C[C@@]2(C)[C@H]1CC[C@]2(O)C(=O)CO [Prednisone]	106%	115%	113%	102%	103%	94%	0	0	0	0	0	0	0	0	0	0	0	0	0	0	0	0	0	0	–	–	–	–	–	–	–	–	–	–
O=NN(CCCl)C(=O)NC1CCCCC1 [Lomustine]	120%	102%	94.7%	108%	81.4%	117%	0	0	0	0	0	0	0	0	0	0	0	0	0	0	0	0	0	0	–	–	–	–	–	–	–	–	–	–
C[C@@H]1C[C@H]2[C@@H]3CCC4=CC(=O)C=C[C@]4(C)[C@@]3(F)[C@@H](O)C[C@]2(C)[C@@]1(O)C(=O)CO [Dexamethasone]	110%	78.2%	76.3%	124%	82.1%	86.7%	0	0	0	0	0	0	0	0	0	0	0	0	0	0	0	0	7.98	0	–	–	–	–	–	–	–	–	–	–
CCN(CC)CCOc1ccc(C(=C(Cl)c2ccccc2)c2ccccc2)cc1 [Clomifene]	116%	114%	104%	93.8%	106%	68.1%	0	5.53	3.64	2.07	1.08	1.23	4.91	0	2.02	0	0	1.07	2.94	1.29	0	3.83	3.38	0	–	–	–	–	–	–	–	–	–	–
NC1(c2ccc(-c3nc4ccn5c(=O)[nH]nc5c4cc3-c3ccccc3)cc2)CCC1 [MK-2206]	95.2%	–	–	–	62.3%	–	1.65	0	0	2.37	0	0	2.36	0	4.16	1.04	6.38	0	3.69	0	0	0	4.04	0	112	96.6	98.8	95.7	–	–	–	–	–	–
CC/C(=C(\c1ccccc1)c1ccc(OCCN(C)C)cc1)c1ccccc1 [Tamoxifen]	98.4%	85.2%	103%	102%	107%	90%	0	0	1.73	2.35	0	0	3.95	0	0	0	0	0	0	0	0	0	2.6	0	–	–	–	–	–	–	–	–	–	–
N[C@@H](Cc1ccc(N(CCCl)CCCl)cc1)C(=O)O [Melphalan]	–	–	–	–	–	–	0	0	0	0	0	9.6	0	0	0	0	0	0	0	0	3.68	0	0	0	–	–	–	–	105	101	102	102	82.1	90.7
COc1cc2c(Oc3ccc(NC(=O)C4(C(=O)Nc5ccc(F)cc5)CC4)cc3F)ccnc2cc1OCCCN1CCOCC1 [Foretinib]	91.6%	–	–	–	72.6%	–	2.11	0	0	3.35	0	0	0	0	9.7	4.07	0.269	4.98	0	1.75	0.649	1.14	0	0	115	85.9	77.2	89.9	–	–	–	–	–	–
CN1CCN(c2nc(C3=C(c4c[nH]c5ccccc45)C(=O)NC3=O)c3ccccc3n2)CC1 [Sotrastaurin]	102%	105%	87.7%	121%	108%	101%	0	0	0	0	0	0	0	0	0	0	0	0	0	0	0	0	0	0	–	–	–	–	–	–	–	–	–	–
CO[C@H](C(=O)[C@@H](O)[C@@H](C)O)[C@@H]1Cc2cc3cc(O[C@H]4C[C@@H](O[C@@H]5C[C@@H](O)[C@H](O)[C@@H](C)O5)[C@H](O)[C@@H](C)O4)c(C)c(O)c3c(O)c2C(=O)[C@H]1O[C@H]1C[C@@H](O[C@@H]2C[C@@H](O)[C@@H](O[C@@H]3C[C@](C)(O)[C@H](O)[C@@H](C)O3)[C@@H](C)O2)[C@H](O)[C@@H](C)O1 [Plicamycin]	109% and 113%	99.8% and 92.6%	48.3% and 34.6%	89.6% and 108%	22.3% and 22.2%	15.2% and 19.4%	25.6 and 24.2	26 and 26.4	27.1 and 27.9	23.3 and 27.5	22.8 and 23.8	21.1 and 22.3	29.9 and 30.3	22.2 and 25.5	18.2 and 19	22.1 and 22.3	25 and 27.1	17.6 and 22.2	16.8 and 17.6	28 and 28.2	28 and 31.7	22.5 and 23.6	22.7 and 24.3	18.9 and 20.2	–	–	–	–	–	–	–	–	–	–

From the supplement of paper PMC4862054
